In US20160113282A1 (HONBU SANKEI CO., LTD., priority 2013, published 2016):
Where two headings read alike, the source gives them in different places.

Experiments:
HEp-2 cells [1] = experiment: Impairment in colony formation capability; format: cell-based, human; conditions: phosphoric acid buffer (FIG. 7)
[2] = test system: feline calicivirus F4 strain; experiment: Inactivation of feline caliciviruses (Example 10), plaque assay on CRFK cells; format: cell-based; conditions: 30 minutes at 25° C. (FIG. 10)
[3] = test system: influenza virus Type A Aichi strain A/Aichi/68 (H3N2); format: cell-based; conditions: 10 ppm; for ratio of the amount of residual infectious viruses: 30 minutes at 25° C., PBS = 1.00
HEp-2 cells [4] = conditions: human, 20 min
[5] = test system: feline calicivirus F4 strain; experiment: In vitro test in test tube, feline caliciviruses (Example 11); format: cell-based

Question: Which “concentration at which impairment in colony formation was observed” value (HEp-2 cells [1]) does the source give for `OCl` [Sodium hypochlorite aqueous solution, sodium hypochlorite] here?
Answer: ≤ 5 ppm

Question: And the “effect of pH on inactivation of feline caliciviruses” value ([2]; pH 4.5 and pH 7.5)?
Answer: greatly affected by pH

Question: What about the “feline caliciviruses inactivation capability” value ([2]; pH of 4.5) of the same compound?
Answer: lost

Question: What about the “viruses inactivated to (detectable limit)” value ([3]; each pH from pH 5.5 to pH 8.8) of the same compound?
Answer: < 10^−5

Question: And the “ratio of the amount of residual infectious viruses” value ([3]; pH 5.5)?
Answer: <0.0002

Question: And the “ratio of the amount of residual infectious viruses” value ([3]; pH 6.5)?
Answer: <0.0002

Question: And the “ratio of the amount of residual infectious viruses” value ([3]; pH 7.5)?
Answer: <0.0002

Question: What about the “ratio of the amount of residual infectious viruses” value ([3]; pH 8.5) of the same compound?
Answer: <0.0002

Question: And the “concentration that generated dead cells” value (HEp-2 cells [4])?
Answer: about 0.5 ppm

Question: What about the “number of infectious viruses” value ([5]; pH 5.5, 25 ppm, contact 0 min) of the same compound?
Answer: 5.4 ± 1.7 log CPU/mL

Question: What about the “number of infectious viruses” value ([5]; pH 5.5, 50 ppm, contact 0 min) of the same compound?
Answer: 5.4 ± 1.7 log CPU/mL

Question: And the “number of infectious viruses” value ([5]; pH 5.5, 100 ppm, contact 0 min)?
Answer: 5.4 ± 1.7 log CPU/mL

Question: What about the “number of infectious viruses” value ([5]; pH 5.5, 200 ppm, contact 0 min) of the same compound?
Answer: 5.4 ± 1.7 log CPU/mL

Question: What about the “number of infectious viruses” value ([5]; pH 5.5, 200 ppm, contact 5 min) of the same compound?
Answer: 3.7 ± 1.8 log CPU/mL

Question: What about the “number of infectious viruses” value ([5]; pH 5.5, 200 ppm, contact 10 min) of the same compound?
Answer: 2.6 ± 1.8 log CPU/mL

Question: What about the “number of infectious viruses” value ([5]; pH 5.5, 400 ppm, contact 0 min) of the same compound?
Answer: 5.4 ± 1.7 log CPU/mL

Question: What about the “number of infectious viruses” value ([5]; pH 5.5, 400 ppm, contact 1 min) of the same compound?
Answer: <2.0 log CPU/mL

Question: And the “number of infectious viruses” value ([5]; pH 5.5, 400 ppm, contact 5 min)?
Answer: <2.0 log CPU/mL

Question: And the “number of infectious viruses” value ([5]; pH 5.5, 400 ppm, contact 10 min)?
Answer: <2.0 log CPU/mL

Question: What about the “number of infectious viruses” value ([5]; pH 6.5, 25 ppm, contact 0 min) of the same compound?
Answer: 6.1 ± 2.1 log CPU/mL

Question: And the “number of infectious viruses” value ([5]; pH 6.5, 50 ppm, contact 0 min)?
Answer: 6.1 ± 2.1 log CPU/mL

Question: What about the “number of infectious viruses” value ([5]; pH 6.5, 100 ppm, contact 0 min) of the same compound?
Answer: 6.1 ± 2.1 log CPU/mL

Question: And the “number of infectious viruses” value ([5]; pH 6.5, 200 ppm, contact 0 min)?
Answer: 6.1 ± 2.1 log CPU/mL

Question: And the “number of infectious viruses” value ([5]; pH 6.5, 200 ppm, contact 5 min)?
Answer: 3.3 ± 2.9 log CPU/mL

Question: What about the “number of infectious viruses” value ([5]; pH 6.5, 200 ppm, contact 10 min) of the same compound?
Answer: <2.0 log CPU/mL

Question: What about the “number of infectious viruses” value ([5]; pH 6.5, 400 ppm, contact 0 min) of the same compound?
Answer: 6.1 ± 2.1 log CPU/mL

Question: What about the “number of infectious viruses” value ([5]; pH 6.5, 400 ppm, contact 1 min) of the same compound?
Answer: <2.0 log CPU/mL

Question: And the “number of infectious viruses” value ([5]; pH 6.5, 400 ppm, contact 5 min)?
Answer: <2.0 log CPU/mL

Question: What about the “number of infectious viruses” value ([5]; pH 6.5, 400 ppm, contact 10 min) of the same compound?
Answer: <2.0 log CPU/mL

Question: And the “number of infectious viruses” value ([5]; pH 7.5, 25 ppm, contact 0 min)?
Answer: 5.2 ± 2.6 log CPU/mL

Question: And the “number of infectious viruses” value ([5]; pH 7.5, 50 ppm, contact 0 min)?
Answer: 5.2 ± 2.6 log CPU/mL

Question: And the “number of infectious viruses” value ([5]; pH 7.5, 50 ppm, contact 5 min)?
Answer: 4.4 ± 1.8 log CPU/mL

Question: What about the “number of infectious viruses” value ([5]; pH 7.5, 50 ppm, contact 10 min) of the same compound?
Answer: <2.0 log CPU/mL

Question: And the “number of infectious viruses” value ([5]; pH 7.5, 100 ppm, contact 0 min)?
Answer: 5.2 ± 2.6 log CPU/mL

Question: And the “number of infectious viruses” value ([5]; pH 7.5, 100 ppm, contact 5 min)?
Answer: 3.4 ± 1.8 log CPU/mL

Question: What about the “number of infectious viruses” value ([5]; pH 7.5, 100 ppm, contact 10 min) of the same compound?
Answer: <2.0 log CPU/mL

Question: And the “number of infectious viruses” value ([5]; pH 7.5, 200 ppm, contact 0 min)?
Answer: 5.2 ± 2.6 log CPU/mL

Question: What about the “number of infectious viruses” value ([5]; pH 7.5, 200 ppm, contact 1 min) of the same compound?
Answer: 2.5 ± 1.8 log CPU/mL

Question: What about the “number of infectious viruses” value ([5]; pH 7.5, 200 ppm, contact 5 min) of the same compound?
Answer: <2.0 log CPU/mL

Question: And the “number of infectious viruses” value ([5]; pH 7.5, 200 ppm, contact 10 min)?
Answer: <2.0 log CPU/mL

Question: What about the “number of infectious viruses” value ([5]; pH 7.5, 400 ppm, contact 0 min) of the same compound?
Answer: 5.2 ± 2.6 log CPU/mL

Question: What about the “number of infectious viruses” value ([5]; pH 7.5, 400 ppm, contact 1 min) of the same compound?
Answer: <2.0 log CPU/mL

Question: What about the “number of infectious viruses” value ([5]; pH 7.5, 400 ppm, contact 5 min) of the same compound?
Answer: <2.0 log CPU/mL

Question: And the “number of infectious viruses” value ([5]; pH 7.5, 400 ppm, contact 10 min)?
Answer: <2.0 log CPU/mL

Question: And the “number of infectious viruses” value ([5]; pH 8.5, 25 ppm, contact 0 min)?
Answer: 4.7 ± 2.8 log CPU/mL

Question: What about the “number of infectious viruses” value ([5]; pH 8.5, 50 ppm, contact 0 min) of the same compound?
Answer: 4.7 ± 2.8 log CPU/mL

Question: And the “number of infectious viruses” value ([5]; pH 8.5, 50 ppm, contact 1 min)?
Answer: 4.6 ± 3.2 log CPU/mL

Question: What about the “number of infectious viruses” value ([5]; pH 8.5, 50 ppm, contact 5 min) of the same compound?
Answer: 3.5 ± 2.1 log CPU/mL

Question: And the “number of infectious viruses” value ([5]; pH 8.5, 50 ppm, contact 10 min)?
Answer: <2.0 log CPU/mL

Question: What about the “number of infectious viruses” value ([5]; pH 8.5, 100 ppm, contact 0 min) of the same compound?
Answer: 4.7 ± 2.8 log CPU/mL

Question: And the “number of infectious viruses” value ([5]; pH 8.5, 100 ppm, contact 1 min)?
Answer: 3.7 ± 2.6 log CPU/mL

Question: And the “number of infectious viruses” value ([5]; pH 8.5, 100 ppm, contact 5 min)?
Answer: <2.0 log CPU/mL

Question: What about the “number of infectious viruses” value ([5]; pH 8.5, 100 ppm, contact 10 min) of the same compound?
Answer: <2.0 log CPU/mL

Question: What about the “number of infectious viruses” value ([5]; pH 8.5, 200 ppm, contact 0 min) of the same compound?
Answer: 4.7 ± 2.8 log CPU/mL

Question: What about the “number of infectious viruses” value ([5]; pH 8.5, 200 ppm, contact 1 min) of the same compound?
Answer: 2.5 ± 2.3 log CPU/mL

Question: And the “number of infectious viruses” value ([5]; pH 8.5, 200 ppm, contact 5 min)?
Answer: <2.0 log CPU/mL

Question: What about the “number of infectious viruses” value ([5]; pH 8.5, 200 ppm, contact 10 min) of the same compound?
Answer: <2.0 log CPU/mL

Question: And the “number of infectious viruses” value ([5]; pH 8.5, 400 ppm, contact 0 min)?
Answer: 4.7 ± 2.8 log CPU/mL

Question: What about the “number of infectious viruses” value ([5]; pH 8.5, 400 ppm, contact 1 min) of the same compound?
Answer: <2.0 log CPU/mL

Question: What about the “number of infectious viruses” value ([5]; pH 8.5, 400 ppm, contact 5 min) of the same compound?
Answer: <2.0 log CPU/mL

Question: And the “number of infectious viruses” value ([5]; pH 8.5, 400 ppm, contact 10 min)?
Answer: <2.0 log CPU/mL

Question: What about the “number of infectious viruses” value ([5]; pH unadjusted, 25 ppm, contact 0 min) of the same compound?
Answer: 6.4 ± 2.7 log CPU/mL

Question: What about the “number of infectious viruses” value ([5]; pH unadjusted, 25 ppm, contact 10 min) of the same compound?
Answer: >10^6 log CPU/mL

Question: And the “number of infectious viruses” value ([5]; pH unadjusted, 50 ppm, contact 0 min)?
Answer: 6.4 ± 2.7 log CPU/mL

Question: What about the “number of infectious viruses” value ([5]; pH unadjusted, 50 ppm, contact 1 min) of the same compound?
Answer: 3.5 ± 2.1 log CPU/mL

Question: What about the “number of infectious viruses” value ([5]; pH unadjusted, 50 ppm, contact 5 min) of the same compound?
Answer: 2.9 ± 2.7 log CPU/mL

Question: And the “number of infectious viruses” value ([5]; pH unadjusted, 50 ppm, contact 10 min)?
Answer: <2.0 log CPU/mL
